Test systems include ACHN renal; RXF 393 renal; SK-OV-3 ovarian; 786-0 renal; SN12C renal; UACC-62 melanoma; PC-3 prostate; SR leukemia; K-562 leukemia; NCI-H23 lung.
Holding throughout (assay): NCI anticancer screen, dose series, 48 h

Values joined by “and” are separate entries in the source; they are usually repeats but may differ in a detail not shown here. Equal values may be shown once.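 Each compound was tested at five concentrations against cells in 96-well plates for 48 hours. GI50 = concentration required for 50% inhibition of growth. TGI is the concentration that stops growth completely.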

With `C/C(=C\CCc1ccoc1)CC/C=C(\C)CCCC1=CC(=O)OC1`, the GI50 in the test on ACHN renal was 12.6 µM; with RXF 393 renal it was 3.17 µM; in the test with SK-OV-3 ovarian, 12.6 µM; with 786-0 renal, 9.16 µM; in the test on SN12C renal, 11.2 µM; with UACC-62 melanoma, 4.73 µM. Moreover, the GI50 with PC-3 prostate was 3.2 µM; in the test on SR leukemia it was 3.45 µM; in the test on K-562 leukemia it was 4.8 µM; with NCI-H23 lung it was 4.74 µM. In addition, the TGI is over 100 µM in the test on ACHN renal; 15.7 µM in the test on RXF 393 renal; 50.4 µM in the test on SK-OV-3 ovarian; 42.2 µM in the test on 786-0 renal; 39.6 µM in the test on SN12C renal; 29.7 µM in the test with UACC-62 melanoma. In addition, the TGI with PC-3 prostate was 24.9 µM; with SR leukemia, 17.1 µM; in the test with K-562 leukemia, over 100 µM; with NCI-H23 lung, 29.6 µM.

Consider `COc1cc(Nc2cn[nH]c2-c2ccc(Cl)cc2)cc(OC)c1OC`, for which the GI50 with ACHN renal is 7.41 µM; with RXF 393 renal, 10.4 µM; with SK-OV-3 ovarian it was 4.92 µM; in the test on 786-0 renal, 6.8 µM; in the test on SN12C renal, 8.68 µM; with UACC-62 melanoma, 3.61 µM. Also, the GI50 is 8.18 µM in the test with PC-3 prostate, 2.23 µM with SR leukemia, 2.49 µM in the test on K-562 leukemia and 8.33 µM in the test with NCI-H23 lung. The TGI in the test with ACHN renal was over 76.8 µM; with RXF 393 renal, over 64.1 µM; with SK-OV-3 ovarian, 36.6 µM; in the test on 786-0 renal it was 36.2 µM; with SN12C renal it was over 100 µM; with UACC-62 melanoma, 18.9 µM. Besides, the TGI in the test with PC-3 prostate is over 64 µM; in the test with SR leukemia, 42.2 µM; with K-562 leukemia it was 97.2 µM; in the test with NCI-H23 lung it was over 60.8 µM.

Consider `COc1ccc2c(c1)C(C)Cc1c(Cl)ncnc1N2C` (centres undefined), for which the GI50 was 0.852 µM in the test with ACHN renal; 0.42 µM with RXF 393 renal; 0.504 µM in the test with SK-OV-3 ovarian; 0.309 µM with 786-0 renal; 1.29 µM with SN12C renal; 0.445 µM in the test with UACC-62 melanoma. Also, the GI50 with PC-3 prostate is 0.424 µM; in the test with SR leukemia, 0.45 µM; with K-562 leukemia it was 2.08 µM; with NCI-H23 lung it was 0.449 µM. The TGI with ACHN renal is over 100 µM; in the test with RXF 393 renal, 3.83 µM; with SK-OV-3 ovarian it was 17.3 µM; in the test with 786-0 renal it was 5.45 µM; in the test on SN12C renal it was 23.6 µM; with UACC-62 melanoma it was 19 µM. The TGI is over 59.1 µM with PC-3 prostate, over 19.8 µM with SR leukemia, over 100 µM in the test with K-562 leukemia and 11.5 µM in the test on NCI-H23 lung.

For the molecule `Clc1coc2nc3ccccc3c(Nc3ccc4c(c3)OCO4)c12`, the GI50 in the test with ACHN renal was 1.15 µM; in the test on RXF 393 renal, 1.51 µM; with SK-OV-3 ovarian, 2.24 µM; in the test with 786-0 renal it was 2.73 µM; with SN12C renal it was 5.95 µM; in the test on UACC-62 melanoma it was 0.408 µM. Further, the GI50 in the test on PC-3 prostate was 1.93 µM; in the test on SR leukemia, 0.201 µM; with K-562 leukemia, 0.498 µM; in the test on NCI-H23 lung, 0.983 µM. Besides, the TGI with ACHN renal was 12.1 µM; in the test with RXF 393 renal it was 8.47 µM; in the test on SK-OV-3 ovarian, over 100 µM; in the test with 786-0 renal, over 42.6 µM; in the test with SN12C renal, over 100 µM; in the test on UACC-62 melanoma, 5.32 µM. The TGI in the test on PC-3 prostate was found to be 13.5 µM; in the test with SR leukemia, 0.938 µM; with NCI-H23 lung, 22 µM.

Regarding `CC[C@]12C=CCN3CC[C@@]4(c5ccc(OC)cc5N(C)[C@H]4[C@@](O)(C(=O)OC)[C@@H]1OC(=O)CCC[P+](c1ccccc1)(c1ccccc1)c1ccccc1)[C@@H]32`, the GI50 is 5.32 µM and 7.58 µM with ACHN renal; 0.736 µM and 1.53 µM with RXF 393 renal; 0.894 µM and 0.439 µM in the test on SK-OV-3 ovarian; 2.13 µM in the test with 786-0 renal; 0.719 µM and 0.491 µM in the test on SN12C renal; 0.3 µM and 0.379 µM in the test with UACC-62 melanoma. Besides, the GI50 was 0.224 µM and 0.345 µM in the test with PC-3 prostate; 0.379 µM and 0.438 µM in the test on SR leukemia; 0.561 µM and 0.421 µM with K-562 leukemia; 1.11 µM and 0.984 µM in the test on NCI-H23 lung. Also, the TGI in the test on ACHN renal is 14.5 µM and 20.1 µM; in the test with RXF 393 renal, 2.94 µM and 4.34 µM; in the test on SK-OV-3 ovarian it was 3.8 µM and 2.46 µM; in the test with 786-0 renal, 8.03 µM; in the test with SN12C renal, 5.45 µM and 6.66 µM; with UACC-62 melanoma, 0.964 µM and 1.42 µM. The TGI with PC-3 prostate is 5.13 µM and 2.59 µM; in the test on SR leukemia, 7.07 µM and 1.97 µM; in the test with K-562 leukemia, 8.23 µM and 5.98 µM; in the test with NCI-H23 lung, 5.5 µM and 7.77 µM.

`COc1ccc(C(=O)c2cc(OC)c(C)c(OC)c2)cc1OC(=O)CCl`: the GI50 in the test on ACHN renal is 0.7 µM; in the test with RXF 393 renal, 0.33 µM; in the test with SK-OV-3 ovarian, 0.76 µM; with 786-0 renal it was 3.65 µM; with SN12C renal, 0.638 µM; in the test with UACC-62 melanoma it was 1.61 µM. Further, the GI50 with PC-3 prostate was 0.275 µM; in the test on SR leukemia, 0.0305 µM; with K-562 leukemia, 0.0538 µM; in the test with NCI-H23 lung it was 0.558 µM. The TGI is 35.5 µM in the test with ACHN renal; 32.5 µM in the test with RXF 393 renal; over 100 µM with SK-OV-3 ovarian; over 79.5 µM in the test on 786-0 renal; 37.1 µM in the test with SN12C renal; 22.4 µM in the test with UACC-62 melanoma. The TGI was over 100 µM in the test on PC-3 prostate, 13.2 µM with SR leukemia, over 100 µM in the test on K-562 leukemia and over 100 µM in the test with NCI-H23 lung.

Regarding `Oc1ccc(Cl)cc1Cc1cc(Cl)cc(Cl)c1O`, the GI50 is 3.69 µM in the test on ACHN renal; 2.54 µM in the test with RXF 393 renal; 2.93 µM in the test with SK-OV-3 ovarian; 8.98 µM in the test on 786-0 renal; 3.7 µM in the test with SN12C renal; 4.55 µM with UACC-62 melanoma. The GI50 is 3.59 µM with PC-3 prostate, 5.02 µM in the test on SR leukemia, 4.52 µM with K-562 leukemia and 3.32 µM with NCI-H23 lung. Also, the TGI is 18 µM in the test on ACHN renal; 8.54 µM in the test on RXF 393 renal; 13.1 µM in the test on SK-OV-3 ovarian; 30.1 µM with 786-0 renal; 21.8 µM with SN12C renal; 18.8 µM in the test with UACC-62 melanoma. Besides, the TGI in the test on PC-3 prostate was determined as 15.5 µM; in the test with SR leukemia it was 27.4 µM; in the test with K-562 leukemia, 28.4 µM; in the test on NCI-H23 lung, 10.6 µM.

The record behind these values is PubChem BioAssay (NCI).
